In PubChem BioAssay (NCI):
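Test compounds were applied to cells in 96-well plates for 48 hours at 5 doses. GI50 marks 50% less growth. At the TGI there is no net growth.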

Assays:
Test in all cases: NCI tumour cell line growth inhibition, 48 h
[1] = system: MOLT-4 leukemia
[2] = system: SK-OV-3 ovarian
[3] = system: ACHN renal
[4] = system: COLO 205 colon
[5] = system: SW-620 colon
[6] = system: LXFL 529 NSCLC
[7] = system: HCT-116 colon
[8] = system: TK-10 renal
[9] = system: RPMI-8226 leukemia
[10] = system: HCT-15 colon
[11] = system: SK-MEL-5 melanoma
[12] = system: 786-0 renal
[13] = system: OVCAR-4 ovarian
[14] = system: RXF-631 renal
[15] = system: SF-295 CNS
[16] = system: UACC-62 melanoma
[17] = system: MALME-3M melanoma
[18] = system: OVCAR-8 ovarian
[19] = system: NCI-H23 lung
[20] = system: KM12 colon
[21] = system: EKVX NSCLC
[22] = system: SK-MEL-28 melanoma
[23] = system: NCI-H522 lung
[24] = system: U251 CNS
[25] = system: SNB-19 CNS
[26] = system: DLD-1 colon
[27] = system: DMS 273 small cell lung
[28] = system: UO-31 renal
[29] = system: K-562 leukemia
[30] = system: M14 melanoma
[31] = system: NCI-H460 lung
[32] = system: CAKI-1 renal
[33] = system: HT29 colon
[34] = system: IGROV1 ovarian
[35] = system: HOP-92 NSCLC
[36] = system: OVCAR-3 ovarian
[37] = system: OVCAR-5 ovarian
[38] = system: SK-MEL-2 melanoma
[39] = system: A549 NSCLC
[40] = system: XF 498 CNS
[41] = system: M19-MEL melanoma
[42] = system: SNB-75 CNS
[43] = system: HCC-2998 colon
[44] = system: KM20L2 colon
[45] = system: UACC-257 melanoma
[46] = system: SN12C renal
[47] = system: HL-60(TB) leukemia
[48] = system: HOP-62 NSCLC
[49] = system: SF-539 CNS
[50] = system: CCRF-CEM leukemia
[51] = system: A498 renal
[52] = system: NCI-H226 lung
[53] = system: DMS 114 small cell lung
[54] = system: SR leukemia
[55] = system: SF-268 CNS
[56] = system: LOX IMVI melanoma
[57] = system: RXF 393 renal

Q: Which GI50 [1] does the source give for `CC(C)OP(=O)(OC(C)C)C([CH2][Sn]([CH3])([CH3])[Cl])P(=O)(OC(C)C)OC(C)C` here?
A: 18.2 µM

Q: What about the TGI [1] of the same compound?
A: 46.2 µM

Q: What about the GI50 [2] of the same compound?
A: 25.5 µM

Q: What about the TGI [2] of the same compound?
A: 64 µM

Q: And the GI50 [3]?
A: 31 µM

Q: And the TGI [3]?
A: > 100 µM

Q: And the GI50 [4]?
A: 15.2 µM

Q: What about the TGI [4] of the same compound?
A: 29.1 µM

Q: And the GI50 [5]?
A: 20.2 µM

Q: What about the TGI [5] of the same compound?
A: 42.5 µM

Q: What about the GI50 [6] of the same compound?
A: 15 µM

Q: What about the TGI [6] of the same compound?
A: 29.4 µM

Q: And the GI50 [7]?
A: 19.7 µM

Q: And the TGI [7]?
A: 42.8 µM

Q: And the GI50 [8]?
A: 23.2 µM

Q: And the TGI [8]?
A: 69.9 µM

Q: And the GI50 [9]?
A: 15.2 µM

Q: And the TGI [9]?
A: 35.1 µM

Q: What about the GI50 [10] of the same compound?
A: 20.2 µM

Q: And the TGI [10]?
A: 47.4 µM

Q: And the GI50 [11]?
A: 16.5 µM

Q: What about the TGI [11] of the same compound?
A: 31 µM

Q: And the GI50 [12]?
A: 16.7 µM

Q: And the TGI [12]?
A: 33.1 µM

Q: What about the GI50 [13] of the same compound?
A: 26.8 µM

Q: And the TGI [13]?
A: > 100 µM

Q: And the GI50 [14]?
A: 38.3 µM

Q: What about the TGI [14] of the same compound?
A: > 100 µM

Q: What about the GI50 [15] of the same compound?
A: 19.7 µM

Q: What about the TGI [15] of the same compound?
A: 48.7 µM

Q: What about the GI50 [16] of the same compound?
A: 14.1 µM

Q: And the TGI [16]?
A: 32.9 µM

Q: And the GI50 [17]?
A: 16.3 µM

Q: What about the TGI [17] of the same compound?
A: 33.2 µM

Q: And the GI50 [18]?
A: 30.2 µM

Q: And the TGI [18]?
A: > 100 µM

Q: What about the GI50 [19] of the same compound?
A: 18.1 µM

Q: And the TGI [19]?
A: 44.3 µM

Q: And the GI50 [20]?
A: 13.4 µM

Q: And the TGI [20]?
A: 41.9 µM

Q: And the GI50 [21]?
A: 30.3 µM

Q: What about the TGI [21] of the same compound?
A: 98 µM

Q: What about the GI50 [22] of the same compound?
A: 21.3 µM

Q: And the TGI [22]?
A: 74.9 µM

Q: What about the GI50 [23] of the same compound?
A: 6.6 µM

Q: And the TGI [23]?
A: 23.5 µM

Q: And the GI50 [24]?
A: 20.4 µM

Q: And the TGI [24]?
A: 46.3 µM

Q: And the GI50 [25]?
A: 30.2 µM

Q: And the TGI [25]?
A: 86.9 µM

Q: And the GI50 [26]?
A: 36.8 µM

Q: And the TGI [26]?
A: > 100 µM

Q: And the GI50 [27]?
A: 19.8 µM

Q: What about the TGI [27] of the same compound?
A: 53.5 µM

Q: What about the GI50 [28] of the same compound?
A: 19.9 µM

Q: What about the TGI [28] of the same compound?
A: 43.2 µM

Q: What about the GI50 [29] of the same compound?
A: 25.3 µM

Q: And the TGI [29]?
A: > 100 µM

Q: And the GI50 [30]?
A: 16.4 µM

Q: And the TGI [30]?
A: 31.4 µM

Q: And the GI50 [31]?
A: 16 µM

Q: What about the TGI [31] of the same compound?
A: 36.3 µM

Q: And the GI50 [32]?
A: 19.9 µM

Q: What about the TGI [32] of the same compound?
A: 55.7 µM

Q: What about the GI50 [33] of the same compound?
A: 22.1 µM

Q: And the TGI [33]?
A: 79.2 µM

Q: What about the GI50 [34] of the same compound?
A: 24.5 µM

Q: What about the TGI [34] of the same compound?
A: 97.4 µM

Q: What about the GI50 [35] of the same compound?
A: 13.7 µM

Q: And the TGI [35]?
A: 34.4 µM

Q: What about the GI50 [36] of the same compound?
A: 20.2 µM

Q: What about the TGI [36] of the same compound?
A: 72.5 µM

Q: And the GI50 [37]?
A: 31.5 µM

Q: What about the TGI [37] of the same compound?
A: > 100 µM

Q: What about the GI50 [38] of the same compound?
A: 15.6 µM

Q: What about the TGI [38] of the same compound?
A: 29.9 µM

Q: What about the GI50 [39] of the same compound?
A: 27.7 µM

Q: What about the TGI [39] of the same compound?
A: > 100 µM

Q: What about the GI50 [40] of the same compound?
A: 14.5 µM

Q: What about the TGI [40] of the same compound?
A: 35.1 µM

Q: What about the GI50 [41] of the same compound?
A: 19.8 µM

Q: And the TGI [41]?
A: 49.9 µM

Q: What about the GI50 [42] of the same compound?
A: 19.3 µM

Q: What about the TGI [42] of the same compound?
A: 43.3 µM

Q: And the GI50 [43]?
A: 22.6 µM

Q: What about the TGI [43] of the same compound?
A: 40.3 µM

Q: What about the GI50 [44] of the same compound?
A: 17.5 µM

Q: And the TGI [44]?
A: 34.6 µM

Q: And the GI50 [45]?
A: 21.3 µM

Q: And the TGI [45]?
A: 65.3 µM

Q: And the GI50 [46]?
A: 27.9 µM

Q: What about the TGI [46] of the same compound?
A: > 100 µM

Q: And the GI50 [47]?
A: 4.56 µM

Q: And the TGI [47]?
A: 18.2 µM

Q: What about the GI50 [48] of the same compound?
A: 20.9 µM

Q: What about the TGI [48] of the same compound?
A: 40.4 µM

Q: What about the GI50 [49] of the same compound?
A: 24.2 µM

Q: What about the TGI [49] of the same compound?
A: 51.5 µM

Q: What about the GI50 [50] of the same compound?
A: 20.7 µM

Q: And the TGI [50]?
A: 64.9 µM

Q: What about the GI50 [51] of the same compound?
A: 19.3 µM

Q: And the TGI [51]?
A: > 100 µM

Q: What about the GI50 [52] of the same compound?
A: 21.2 µM

Q: What about the TGI [52] of the same compound?
A: 41.3 µM

Q: What about the GI50 [53] of the same compound?
A: 21.9 µM

Q: What about the TGI [53] of the same compound?
A: 67 µM

Q: Which TGI [1] does the source give for `CC(C)c1cccc(C(C)C)c1NC(=S)N=Nc1cc(C(C)(C)C)c(O)c(C(C)(C)C)c1` here?
A: > 100 µM

Q: What about the TGI [3] of the same compound?
A: > 100 µM

Q: What about the TGI [4] of the same compound?
A: 44.6 µM

Q: What about the TGI [5] of the same compound?
A: 78 µM

Q: And the TGI [6]?
A: > 100 µM

Q: What about the TGI [7] of the same compound?
A: 13.1 µM

Q: And the TGI [8]?
A: 71.5 µM

Q: What about the TGI [54] of the same compound?
A: > 100 µM

Q: And the TGI [9]?
A: 85.9 µM

Q: What about the TGI [10] of the same compound?
A: > 100 µM

Q: What about the TGI [11] of the same compound?
A: 37.3 µM

Q: And the TGI [12]?
A: 35.7 µM

Q: What about the TGI [13] of the same compound?
A: 43.1 µM

Q: What about the TGI [14] of the same compound?
A: > 100 µM

Q: What about the TGI [15] of the same compound?
A: > 100 µM

Q: And the TGI [16]?
A: 50 µM

Q: And the TGI [17]?
A: 63.8 µM

Q: What about the TGI [18] of the same compound?
A: 38 µM

Q: What about the TGI [19] of the same compound?
A: 31.8 µM

Q: What about the TGI [21] of the same compound?
A: > 100 µM

Q: And the TGI [22]?
A: 95.7 µM

Q: And the TGI [24]?
A: 30.1 µM

Q: What about the TGI [25] of the same compound?
A: 48.5 µM

Q: What about the TGI [26] of the same compound?
A: > 100 µM

Q: What about the TGI [27] of the same compound?
A: > 100 µM

Q: What about the TGI [28] of the same compound?
A: 74.7 µM

Q: What about the TGI [29] of the same compound?
A: 78.8 µM

Q: What about the TGI [30] of the same compound?
A: 84.3 µM

Q: What about the TGI [31] of the same compound?
A: 67.8 µM

Q: What about the TGI [33] of the same compound?
A: > 100 µM

Q: And the TGI [34]?
A: 62.6 µM

Q: What about the TGI [55] of the same compound?
A: > 100 µM

Q: And the TGI [36]?
A: 52.2 µM

Q: What about the TGI [38] of the same compound?
A: 35.8 µM

Q: And the TGI [39]?
A: 45.6 µM

Q: What about the TGI [40] of the same compound?
A: 43.3 µM

Q: What about the TGI [42] of the same compound?
A: 58 µM

Q: And the TGI [43]?
A: 54.3 µM

Q: And the TGI [56]?
A: 34.2 µM

Q: What about the TGI [44] of the same compound?
A: 58.6 µM

Q: What about the TGI [45] of the same compound?
A: 43.7 µM

Q: And the TGI [46]?
A: 52.4 µM

Q: What about the TGI [47] of the same compound?
A: 65.9 µM

Q: And the TGI [48]?
A: 32.3 µM

Q: And the TGI [49]?
A: 39 µM

Q: And the TGI [50]?
A: 66.6 µM

Q: And the TGI [51]?
A: 34.4 µM

Q: And the TGI [57]?
A: 30.9 µM

Q: What about the TGI [53] of the same compound?
A: 55.5 µM
